Results as given in paper PMC9604439, “Mutation Hotspot for Changing the Substrate Specificity of β-N-Acetylhexosaminidase: A Library of GlcNAcases” (International Journal of Molecular Sciences, 2022).

Columns and labels:
[1] = biological target: T1, TfHex (β-N-acetylhexosaminidase from Talaromyces flavus) (Talaromyces flavus, UniProt G5DAA0, E332K); assay: discontinuous p-nitrophenolate release assay, non-linear regression; format: biochemical; details: McIlvaine buffer pH 5.0, 25 °C; not measured to full saturation, estimate only
T1 construct: secreted via alpha-factor, pPICZαA, Pichia pastoris KM71H, cation-exchange purified; tetramer of two catalytic subunits and two non-covalently linked propeptides
T1 sequence (G5DAA0 entry or part of it E332K): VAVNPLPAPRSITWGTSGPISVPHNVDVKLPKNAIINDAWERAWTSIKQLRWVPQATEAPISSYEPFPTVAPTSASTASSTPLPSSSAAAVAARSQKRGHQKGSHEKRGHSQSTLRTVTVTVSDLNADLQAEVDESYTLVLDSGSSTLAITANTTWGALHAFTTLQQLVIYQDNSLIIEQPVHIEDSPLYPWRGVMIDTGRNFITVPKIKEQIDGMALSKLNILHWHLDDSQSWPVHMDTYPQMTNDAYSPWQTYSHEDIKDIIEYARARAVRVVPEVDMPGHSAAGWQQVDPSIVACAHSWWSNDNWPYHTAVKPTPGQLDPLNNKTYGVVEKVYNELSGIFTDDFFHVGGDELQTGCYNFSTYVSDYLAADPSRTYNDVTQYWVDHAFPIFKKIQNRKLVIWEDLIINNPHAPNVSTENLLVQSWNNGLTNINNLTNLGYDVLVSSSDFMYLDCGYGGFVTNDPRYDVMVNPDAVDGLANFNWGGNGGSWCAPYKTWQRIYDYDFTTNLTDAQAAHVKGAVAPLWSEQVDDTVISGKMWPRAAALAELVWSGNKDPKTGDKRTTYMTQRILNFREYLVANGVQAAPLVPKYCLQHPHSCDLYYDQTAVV
Text: discontinuous p-nitrophenolate release assay, non-linear regression on TfHex (β-N-acetylhexosaminidase from Talaromyces flavus) | for Glu332Lys TfHex, only estimates of kinetic parameters are presented

[2] = biological target: T2, TfHex (β-N-acetylhexosaminidase from Talaromyces flavus) (Talaromyces flavus, UniProt G5DAA0, E332H); assay: as above; format: biochemical; details: McIlvaine buffer pH 5.0, 25 °C; not measured to full saturation
T2 construct: secreted via alpha-factor, pPICZαA, Pichia pastoris KM71H, cation-exchange purified; tetramer of two catalytic subunits and two non-covalently linked propeptides
T2 sequence (G5DAA0 entry or part of it E332H): as the sequence (G5DAA0 entry or part of it E332K) above, with K315H counted along it

Km [1]: > 7 mM
Km [2]: > 7 mM
SMILES: CC(=O)N[C@H]1[C@H](Oc2ccc([N+](=O)[O-])cc2)O[C@H](CO)[C@@H](O)[C@@H]1O [pNP-GlcNAc, p-Nitrophenyl 2-acetamido-2-deoxy-β-D-glucopyranoside]
